Numbered stars: 1 amine (or outer) side, 2 acyl side, 3 side chain; on linkers, the order of the positions; unused ones are H or OH. Bridge positions count the residues as written; N and C are the ends. Square brackets hold non-standard residues; d marks the D form. Peptide text beside a SMILES is read from it. * marks the point of attachment. Pyrazinoyl(5-oxo-4H) = O=C(c1c[nH]c(=O)cn1)*; Nicotinoyl(6-OMe) = COc1ccc(C(=O)*)cn1; 2Thenoyl(5-Cl) = O=C(c1ccc(Cl)s1)*; Cysteamide = C(CS[*:3])N[*:1]; Orn = NCCC[CH](N)C(=O)O; dDap = NC[C@@H](N)C(=O)O; Bz = O=C(c1ccccc1)*; Mpa = O=C(O)CCS
Biological target: T1, thrombin (Homo sapiens, UniProt P00734)
T1 construct: consists of two polypeptide chains of 36 (light chain) and 259 amino acid
Test: Thrombin inhibition screen of crude macrocycle reactions (residual thrombin activity, fluorogenic substrate Z-Gly-Gly-Arg-AMC)
Assay type: biochemical
Conditions: 10 µM macrocycle concentration; for % thrombin activity, Original screen / % thrombin activity, Repeat screen: macrocycles containing acid 14, crude reaction; for % thrombin activity, Repeat screen: replicate reaction and screen; for percent residual thrombin activity: crude reactions, Library 1a-l, scaffold AA1-AA2-AA3 combined with 1-16 or '-'
Protocol: As a proof-of-concept, we screened the macrocycle library for inhibitors against thrombin, which is the central blood coagulation protease and an important therapeutic target. We conducted the screen for thrombin-inhibiting macrocycles in 384-well reaction plates. Briefly, each well contained a unique macrocycle (10 μM), 5 μL of thrombin (2 nM final conc.), and subsequently, 5 µL of a fluorogenic substrate to measure the residual thrombin activity and the extent of protease inhibition.
The assays were performed in 384-well plates using Tris buffer at pH 7.4 (100 mM Tris-Cl, 150 mM NaCl, 10 mM MgCl2, 1 mM CaCl2, 0.1% w/v BSA, 0.01% v/v Triton-X100, and 0.6% v/v DMSO) using thrombin at a final concentration of 2 nM and the fluorogenic substrate Z-Gly-Gly-Arg-AMC at a final concentration of 50 μM. Thrombin (5 μL, 6 nM) in the Tris-Cl buffer described above was added to each peptide using a BioTek MultiFlo microplate dispenser, and incubated for 10 min at room temperature. […] Data was collected and exported using the Tecan Infinite M200 Pro instrument software. […] For the negative controls (20 wells containing DMSO but no macrocycle), an average slope was calculated. The percent of thrombin inhibition was calculated by dividing the slopes and multiplying the results by 100.

SMILES: O=C1CCNC(=O)[C@@H](Cc2c[nH]c3ccccc23)NC(=O)[C@@H](CNC(=O)c2ccc(Cl)s2)NC(=O)CCSSCCN1 [X D4 w B2]
- % thrombin activity, Original screen: 90.8%
- % thrombin activity, Repeat screen: 96.7%

SMILES: O=C(NCCC[C@@H]1NC(=O)[C@H](CO)NC(=O)[C@@H]2CCCN2C(=O)CCSSCCNC1=O)c1ccccc1 [B1-S-D2/1] ([Mpa]PS[Orn](Bz)-Cysteamide; disulfide 1-C)
- percent residual thrombin activity: 109.462%

SMILES: CC(C)C[C@@H]1NC(=O)CCNC(=O)CCSSCCNC(=O)[C@H](CCCNC(=O)c2ccco2)NC1=O [B2-L-D2/16]
- percent residual thrombin activity: 111.509%

SMILES: O=C1CCSSCCNC(=O)[C@H](Cc2c[nH]c3ccccc23)NC(=O)[C@H](CCCNC(=O)c2ccc(Cl)s2)NC(=O)C2(CC2)CN1 [X B6 D2 W]
- % thrombin activity, Original screen: 87.3%
- % thrombin activity, Repeat screen: 88.9%

SMILES: CC(C)C1NC(=O)C2CCCN(C2)C(=O)C(NC(=O)c2ccc(Cl)s2)CSSCCNC(=O)CNC1=O (stereo not shown) [C B4 V G]
- % thrombin activity, Original screen: 107.3%
- % thrombin activity, Repeat screen: 115.5%

SMILES: O=C1CCSSCCNC(=O)[C@H]2CCCN(C2)C(=O)[C@H](Cc2ccccc2)NC(=O)[C@H](CCCCNC(=O)c2ccc(Cl)s2)N1 [X D1 F B4]
- % thrombin activity, Original screen: 99.6%
- % thrombin activity, Repeat screen: 102.4%

SMILES: O=C1CCNC(=O)[C@@H](NC(=O)c2ccc(Cl)s2)CSSCCNC(=O)[C@@H](CO)NC(=O)CN1 [C B2 G s]
- % thrombin activity, Original screen: 112.4%
- % thrombin activity, Repeat screen: 112.3%

SMILES: O=C(NCCCC[C@@H]1NC(=O)[C@@H]2CCCN2C(=O)CCSSCCNC(=O)[C@@H](Cc2ccc(O)cc2)NC1=O)c1ccc(Cl)s1 [X B1 D1 y] ([Mpa]PK(2Thenoyl(5-Cl))[dY]-Cysteamide; disulfide 1-C)
- % thrombin activity, Original screen: 103.7%
- % thrombin activity, Repeat screen: 108.0%

SMILES: NC(=O)CC[C@@H]1NC(=O)CCSSCCNC(=O)[C@H](CCCCNC(=O)c2c[nH]c(=O)[nH]c2=O)NC(=O)C2(CC2)CNC1=O [Q-B6-D1/11]
- percent residual thrombin activity: 108.88%

SMILES: O=C1CCSSCCNC(=O)[C@H](CCCCNC(=O)c2ccc(Cl)s2)NC(=O)[C@@H](Cc2ccc(O)cc2)NC(=O)c2ccc(cc2)CN1 [X B3 y D1]
- % thrombin activity, Original screen: 106.6%
- % thrombin activity, Repeat screen: 108.9%

SMILES: CC(C)CC(=O)NCCC[C@@H]1NC(=O)CCNC(=O)[C@H](Cc2cnc[nH]2)NC(=O)CCSSCCNC1=O [H-B2-D2/8]
- percent residual thrombin activity: 108.958%

SMILES: CC(C)C[C@@H]1NC(=O)CCSSCCNC(=O)[C@@H]2CCCN2C(=O)[C@@H](CNC(=O)c2ccc(Cl)s2)NC1=O [X L D4 B1] ([Mpa]L[dDap](2Thenoyl(5-Cl))P-Cysteamide; disulfide 1-C)
- % thrombin activity, Original screen: 107.5%
- % thrombin activity, Repeat screen: 100.9%

SMILES: CC[C@H](C)[C@@H]1NC(=O)c2ccc(cc2)CNC(=O)[C@@H](NC(=O)c2ccc(Cl)s2)CSSCCNC(=O)CNC1=O [C B3 I G]
- % thrombin activity, Original screen: 106.0%
- % thrombin activity, Repeat screen: 113.6%

SMILES: CC(C)C[C@@H]1NC(=O)CCSSCCNC(=O)[C@H](CCCNC(=O)COc2ccccc2)NC(=O)[C@H]2CCCN(C2)C1=O [L-B4-D2/13]
- percent residual thrombin activity: 110.982%

SMILES: COc1ccc(C(=O)NCCCC[C@@H]2NC(=O)[C@@H]3CCCN3C(=O)CCSSCCNC(=O)[C@@H](C(C)C)NC2=O)cn1 [B1-D1-v/10] ([Mpa]PK(Nicotinoyl(6-OMe))[dV]-Cysteamide; disulfide 1-C)
- percent residual thrombin activity: 107.398%

SMILES: Cc1nnsc1C(=O)NCCCC[C@@H]1NC(=O)[C@H](Cc2ccc(O)cc2)NC(=O)CCSSCCNC(=O)[C@H]2CCCN(C2)C1=O [Y-D1-B4/15]
- percent residual thrombin activity: 104.272%

SMILES: CC(C)CC(=O)NCCC[C@@H]1NC(=O)CCSSCCNC(=O)[C@H](Cc2ccc(O)cc2)NC(=O)c2cccc(c2)CNC1=O [D2-B5-Y/8]
- percent residual thrombin activity: 100.592%

SMILES: CC(C)C1NC(=O)C(NC(=O)c2ccc(Cl)s2)CSSCCNC(=O)c2cccc(c2)CNC(=O)CNC1=O (stereo not shown) [C v G B5]
- % thrombin activity, Original screen: 111.1%
- % thrombin activity, Repeat screen: 111.8%

SMILES: O=C1CCSSCCNC(=O)[C@@H](CNC(=O)c2ccc(Cl)s2)NC(=O)[C@@H](Cc2c[nH]c3ccccc23)NC(=O)C2(CC2)CN1 [X B6 w D4]
- % thrombin activity, Original screen: 102.8%
- % thrombin activity, Repeat screen: 106.2%

SMILES: CC1NC(=O)C2CCCN2C(=O)C(CCCCNC(=O)c2ccc(Cl)s2)NC(=O)CCSSCCNC1=O (stereo not shown) [D1-B1-a/14] ([Mpa]K(2Thenoyl(5-Cl))PA-Cysteamide; disulfide 1-C; configuration not given here)
- percent residual thrombin activity: 96.3758%

SMILES: COc1ccc(C(=O)NCCC[C@@H]2NC(=O)CCSSCCNC(=O)CCNC(=O)[C@@H](C)NC2=O)cn1 [D2-a-B2/10]
- percent residual thrombin activity: 113.133%

SMILES: C[C@H]1NC(=O)CCSSCCNC(=O)[C@H]2CCCN(C2)C(=O)[C@H](CCCCNC(=O)c2ccccc2)NC1=O [a-D1-B4/1]
- percent residual thrombin activity: 107.784%

SMILES: NC(=O)CCC1NC(=O)C2CCCN2C(=O)CCSSCCNC(=O)C(CCCNC(=O)c2ccc(Cl)s2)NC1=O (stereo not shown) [X B1 Q D2] ([Mpa]PQ[Orn](2Thenoyl(5-Cl))-Cysteamide; disulfide 1-C; configuration not given here)
- % thrombin activity, Original screen: 92.6%
- % thrombin activity, Repeat screen: 89.5%

SMILES: NC(=O)CC[C@@H]1NC(=O)[C@H](CCCCNC(=O)c2ccco2)NC(=O)C2(CC2)CNC(=O)CCSSCCNC1=O [B6-D1-Q/16]
- percent residual thrombin activity: 101.173%

SMILES: COc1ccc(C(=O)NCCCC[C@@H]2NC(=O)c3ccc(cc3)CNC(=O)CCSSCCNC(=O)[C@H](Cc3ccc(O)cc3)NC2=O)cn1 [B3-D1-Y/10]
- percent residual thrombin activity: 99.2373%

SMILES: CC1NC(=O)CCSSCCNC(=O)C2CCCN(C2)C(=O)C(CNC(=O)c2ccc(Cl)s2)NC1=O (stereo not shown) [X a D3 B4]
- % thrombin activity, Original screen: 97.7%
- % thrombin activity, Repeat screen: 98.7%

SMILES: O=C(COc1ccccc1)NCCCC[C@@H]1NC(=O)[C@H](Cc2ccccc2)NC(=O)CCSSCCNC(=O)[C@H]2CCCN(C2)C1=O [F-D1-B4/13]
- percent residual thrombin activity: 109.797%

SMILES: NCCCC[C@@H]1NC(=O)[C@H](Cc2ccc(O)cc2)NC(=O)CCSSCCNC(=O)[C@H]2CCCN(C2)C1=O [Y-D1-B4/-]
- percent residual thrombin activity: 108.211%

SMILES: CC[C@H](C)[C@@H]1NC(=O)CCSSCCNC(=O)[C@H](CCCCNC(=O)c2cc(C)on2)NC(=O)c2cccc(c2)CNC1=O [I-B5-D1/3]
- percent residual thrombin activity: 104.965%

SMILES: CC(C)CC(=O)NCCCC[C@@H]1NC(=O)C2(CC2)CNC(=O)CCSSCCNC(=O)[C@H](CCC(N)=O)NC1=O [B6-D1-Q/8]
- percent residual thrombin activity: 101.194%

SMILES: O=C1CCSSCCNC(=O)C2CC(NC(=O)c3ccc(Cl)s3)CN2C(=O)CCNC(=O)C(Cc2ccccc2)N1 (stereo not shown) [X f B2 D5]
- % thrombin activity, Original screen: 95.3%
- % thrombin activity, Repeat screen: 101.2%

SMILES: Cc1nnsc1C(=O)NCCC[C@@H]1NC(=O)CCSSCCNC(=O)[C@H](Cc2c[nH]cn2)NC(=O)c2cccc(c2)CNC1=O [D2-B5-H/15]
- percent residual thrombin activity: 105.304%

SMILES: C[C@H]1NC(=O)CCSSCCNC(=O)[C@H](CCCCNC(=O)c2c[nH]c(=O)[nH]c2=O)NC(=O)CCNC1=O [a-B2-D1/11]
- percent residual thrombin activity: 107.663%

SMILES: NC(=O)CC[C@@H]1NC(=O)c2ccc(cc2)CNC(=O)[C@H](CCCNC(=O)c2c[nH]c(=O)cn2)NC(=O)CCSSCCNC1=O [D2-B3-Q/9]
- percent residual thrombin activity: 109.29%

SMILES: CC(C)[C@H]1NC(=O)[C@H](CCCCNC(=O)c2c[nH]c(=O)cn2)NC(=O)[C@@H]2CCCN2C(=O)CCSSCCNC1=O [B1-D1-v/9] ([Mpa]PK(Pyrazinoyl(5-oxo-4H))[dV]-Cysteamide; disulfide 1-C)
- percent residual thrombin activity: 111.698%

SMILES: O=C(NCCCC[C@@H]1NC(=O)[C@@H](Cc2c[nH]c3ccccc23)NC(=O)[C@H]2CCCN(C2)C(=O)CCSSCCNC1=O)c1ccc(Cl)s1 [B4-W-D1/14]
- percent residual thrombin activity: 84.8525%

SMILES: O=C1CCSSCCNC(=O)[C@H](Cc2ccc(O)cc2)NC(=O)[C@H](CCCNC(=O)c2ccc(Cl)s2)NC(=O)C2(CC2)CN1 [B6-D2-Y/14]
- percent residual thrombin activity: 95.7216%

SMILES: CC1NC(=O)CCSSCCNC(=O)c2cccc(c2)CNC(=O)C(CCCCNC(=O)c2ccc(Cl)s2)NC1=O (stereo not shown) [X a D1 B5]
- % thrombin activity, Original screen: 102.5%
- % thrombin activity, Repeat screen: 104.4%

SMILES: COc1ccc(C(=O)NCCC[C@@H]2NC(=O)C3(CC3)CNC(=O)CCSSCCNC(=O)[C@H](Cc3c[nH]c4ccccc34)NC2=O)cn1 [B6-D2-W/10]
- percent residual thrombin activity: 93.1158%

SMILES: NCCCC[C@@H]1NC(=O)[C@H](Cc2ccc(O)cc2)NC(=O)C2(CC2)CNC(=O)CCSSCCNC1=O [B6-Y-D1/-]
- percent residual thrombin activity: 104.679%

Reference: paper PMC9250534, “Synthesis and direct assay of large macrocycle diversities by combinatorial late-stage modification at picomole scale” (Nature Communications, 2022)
